Active and inactive are the calls of the source.
Assays:
[1] = viability loss of HPDE-C7K cells – cell-based, fluorescence, HTS, primary screen (AID 431); type: functional; settings: Homo sapiens
[2] = HPDE-C7 pancreatic duct cell viability loss – fluorescence, HTS (AID 430); type: functional, cell-based; settings: Homo sapiens
[3] = target: Peroxisome proliferator-activated receptor gamma/Nuclear receptor coactivator 2 (Homo sapiens, UniProt P37231); type: functional;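 note: agonist potency for raising coactivator recruitment to the receptor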
[4] = target: Peroxisome proliferator-activated receptor gamma/Nuclear receptor coactivator 3 (Homo sapiens, UniProt P37231); type: functional;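 note: agonist potency for raising coactivator recruitment to the receptor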
[5] = target: Peroxisome proliferator-activated receptor gamma/Nuclear receptor coactivator 1 (Homo sapiens, UniProt P37231); type: functional;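 note: agonist potency as compounds enhance coactivator SRC-1 recruitment to PPARgamma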
H4 = experiment: Luminescence Cell-Based Dose Response HTS to Identify Activators of 5'UTR Stem-Loop Driven Prion Protein mRNA Translation in H4 Neuroglioblastoma Cells. [Related pubchem assays: 1829 (Project Summary), 1814 (Primary HTS)]; type: functional; settings: Homo sapiens
[6] = Luminescence Cell-Based Dose Response HTS to Identify Activators of Luciferase Translation or Activity in H4 […] Cells. [Related pubchem assays: 1829 (Project Summary), 1814 (Primary HTS)]; type: functional
Streptococcus = experiment: GAS UMAA2166 growth inhibition – luminescence, BacTiterGlo, counter-screen for streptokinase expression inhibitor project, dose response (AID 1915); type: functional, organism-based;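 note: potency for reduction of bacterial viability or growth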
[7] = tested on: Streptococcus sp. 'group A'; experiment: Streptococcus pyogenes SK(-)GAS viability under kanamycin – luminescence, BacTiterGlo, confirmation, counter-screen for streptokinase expression inhibitor project, dose response (AID 1900); type: functional, organism-based
[8] = viability of uninfected HEp-2 cells – cell-based, HTS, cytotoxicity control for RSV inhibitor project, dose response (AID 2410); type: functional; settings: human respiratory syncytial virus
Streptokinase A = target: T1, Streptokinase A (Streptococcus pyogenes serotype M1, UniProt P10520); experiment: viability-normalized secreted streptokinase activity reduction – plasminogen activation absorbance, OD405, dose response (AID 1914); type: functional, Streptococcus pyogenes M1 GAS;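 note: secreted streptokinase activity via plasminogen activation per viability signal from cell pellet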
T1 sequence (P10520 whole entry): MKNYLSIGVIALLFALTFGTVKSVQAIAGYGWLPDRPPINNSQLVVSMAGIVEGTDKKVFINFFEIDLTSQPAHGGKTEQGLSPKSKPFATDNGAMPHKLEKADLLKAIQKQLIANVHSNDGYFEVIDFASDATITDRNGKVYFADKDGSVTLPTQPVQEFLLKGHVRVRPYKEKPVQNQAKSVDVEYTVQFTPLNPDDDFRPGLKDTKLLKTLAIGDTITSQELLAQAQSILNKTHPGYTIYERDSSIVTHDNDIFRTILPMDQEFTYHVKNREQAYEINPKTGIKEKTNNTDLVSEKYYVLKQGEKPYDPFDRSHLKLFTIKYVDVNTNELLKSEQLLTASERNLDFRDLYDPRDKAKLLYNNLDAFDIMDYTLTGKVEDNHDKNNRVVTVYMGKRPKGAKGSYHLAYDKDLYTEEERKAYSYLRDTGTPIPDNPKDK

[9] = target: G-protein coupled receptor 55 (Homo sapiens, UniProt Q9Y2T6); experiment: inhibition of LPI-stimulated GPR55 beta-arrestin translocation – imaging, U2OS, beta-arrestin-GFP, LPI agonist, primary screen (AID 2013); type: functional;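 note: antagonist potency measured as reduced agonist-driven arrestin aggregation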
[10] = target: T2, Tyrosine-protein phosphatase non-receptor type 22 (Homo sapiens, UniProt Q9Y2R2); experiment: inhibition of lymphoid tyrosine phosphatase LYP – biochemical, pCAP fluorogenic substrate, fluorescence, set 3, SAR follow-up (AID 449727); type: functional
T2 sequence (Q9Y2R2 whole entry): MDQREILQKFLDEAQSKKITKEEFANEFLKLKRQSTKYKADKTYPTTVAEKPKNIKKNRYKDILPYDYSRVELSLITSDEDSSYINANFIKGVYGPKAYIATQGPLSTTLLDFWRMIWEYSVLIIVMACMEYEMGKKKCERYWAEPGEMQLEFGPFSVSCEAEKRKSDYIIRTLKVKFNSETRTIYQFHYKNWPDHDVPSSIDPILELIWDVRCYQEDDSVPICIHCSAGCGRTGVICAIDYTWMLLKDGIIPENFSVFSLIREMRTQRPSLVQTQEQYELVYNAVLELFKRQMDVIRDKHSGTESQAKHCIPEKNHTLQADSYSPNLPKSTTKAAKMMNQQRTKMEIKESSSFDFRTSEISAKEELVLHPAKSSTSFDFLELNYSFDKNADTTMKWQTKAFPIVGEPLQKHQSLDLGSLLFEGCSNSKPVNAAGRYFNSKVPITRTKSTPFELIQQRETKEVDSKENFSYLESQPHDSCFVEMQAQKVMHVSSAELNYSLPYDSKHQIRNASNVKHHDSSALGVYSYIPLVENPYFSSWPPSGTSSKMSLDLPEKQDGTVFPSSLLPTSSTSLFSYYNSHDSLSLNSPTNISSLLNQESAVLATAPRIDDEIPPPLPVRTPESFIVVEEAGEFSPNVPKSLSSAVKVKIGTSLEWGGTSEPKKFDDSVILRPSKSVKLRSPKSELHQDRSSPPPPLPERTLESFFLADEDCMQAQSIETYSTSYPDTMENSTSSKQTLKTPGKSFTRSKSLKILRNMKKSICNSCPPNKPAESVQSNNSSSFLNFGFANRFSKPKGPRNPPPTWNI

[11] = target: Glyceraldehyde-3-phosphate dehydrogenase (Homo sapiens, UniProt P04406)
[12] = target: T2, Tyrosine-protein phosphatase non-receptor type 22; experiment: SAR LYP1 Fluorescent Assay using OMFP substrate for In Vitro dose response studies - Set 3. [Related pubchem assays (depositor defined):AID1779, AID1784, AID2140, AID2686]; type: functional
[13] = target: T3, Tyrosine-protein phosphatase non-receptor type 12 (Homo sapiens, UniProt Q05209); experiment: SAR Selectivity Analysis of small molecule inhibitors of PEST using pCAP in a fluorescence assay. [Related pubchem assays (depositor defined):AID1779, AID1784, AID2135]; type: functional
T3 sequence (Q05209 whole entry): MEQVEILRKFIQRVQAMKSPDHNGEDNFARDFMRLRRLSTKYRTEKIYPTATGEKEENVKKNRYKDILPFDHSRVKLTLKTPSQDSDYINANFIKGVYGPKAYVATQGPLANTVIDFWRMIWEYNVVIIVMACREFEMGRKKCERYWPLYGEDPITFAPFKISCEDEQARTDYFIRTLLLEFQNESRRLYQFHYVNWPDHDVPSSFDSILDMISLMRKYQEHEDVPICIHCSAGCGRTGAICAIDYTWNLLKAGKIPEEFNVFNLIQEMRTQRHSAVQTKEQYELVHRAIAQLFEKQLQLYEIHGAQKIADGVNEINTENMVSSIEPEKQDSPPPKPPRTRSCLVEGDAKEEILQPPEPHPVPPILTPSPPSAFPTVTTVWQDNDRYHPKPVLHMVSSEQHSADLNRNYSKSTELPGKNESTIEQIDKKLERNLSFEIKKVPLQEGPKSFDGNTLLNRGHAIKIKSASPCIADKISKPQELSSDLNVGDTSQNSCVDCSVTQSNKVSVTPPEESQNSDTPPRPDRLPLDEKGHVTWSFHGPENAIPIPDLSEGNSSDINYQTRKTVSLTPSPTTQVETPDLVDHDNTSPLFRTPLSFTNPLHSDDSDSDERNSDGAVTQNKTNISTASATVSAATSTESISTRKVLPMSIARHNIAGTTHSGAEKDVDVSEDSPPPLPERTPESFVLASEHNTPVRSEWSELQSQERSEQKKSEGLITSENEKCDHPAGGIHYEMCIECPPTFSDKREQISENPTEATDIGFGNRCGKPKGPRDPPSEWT

ORF 73 = target: T4, ORF 73 (Human herpesvirus 8, UniProt O40947); experiment: KSHV LANA DNA-binding disruption – biochemical, fluorescence polarization, cherry-picked samples, dose response (AID 504725); set-up: species or system Human gammaherpesvirus 8;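 note: fluorescence polarization of a labeled DNA duplex reporting LANA DNA binding; potency is for inhibitors that block LANA binding to the DNA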
T4 sequence (O40947 whole entry): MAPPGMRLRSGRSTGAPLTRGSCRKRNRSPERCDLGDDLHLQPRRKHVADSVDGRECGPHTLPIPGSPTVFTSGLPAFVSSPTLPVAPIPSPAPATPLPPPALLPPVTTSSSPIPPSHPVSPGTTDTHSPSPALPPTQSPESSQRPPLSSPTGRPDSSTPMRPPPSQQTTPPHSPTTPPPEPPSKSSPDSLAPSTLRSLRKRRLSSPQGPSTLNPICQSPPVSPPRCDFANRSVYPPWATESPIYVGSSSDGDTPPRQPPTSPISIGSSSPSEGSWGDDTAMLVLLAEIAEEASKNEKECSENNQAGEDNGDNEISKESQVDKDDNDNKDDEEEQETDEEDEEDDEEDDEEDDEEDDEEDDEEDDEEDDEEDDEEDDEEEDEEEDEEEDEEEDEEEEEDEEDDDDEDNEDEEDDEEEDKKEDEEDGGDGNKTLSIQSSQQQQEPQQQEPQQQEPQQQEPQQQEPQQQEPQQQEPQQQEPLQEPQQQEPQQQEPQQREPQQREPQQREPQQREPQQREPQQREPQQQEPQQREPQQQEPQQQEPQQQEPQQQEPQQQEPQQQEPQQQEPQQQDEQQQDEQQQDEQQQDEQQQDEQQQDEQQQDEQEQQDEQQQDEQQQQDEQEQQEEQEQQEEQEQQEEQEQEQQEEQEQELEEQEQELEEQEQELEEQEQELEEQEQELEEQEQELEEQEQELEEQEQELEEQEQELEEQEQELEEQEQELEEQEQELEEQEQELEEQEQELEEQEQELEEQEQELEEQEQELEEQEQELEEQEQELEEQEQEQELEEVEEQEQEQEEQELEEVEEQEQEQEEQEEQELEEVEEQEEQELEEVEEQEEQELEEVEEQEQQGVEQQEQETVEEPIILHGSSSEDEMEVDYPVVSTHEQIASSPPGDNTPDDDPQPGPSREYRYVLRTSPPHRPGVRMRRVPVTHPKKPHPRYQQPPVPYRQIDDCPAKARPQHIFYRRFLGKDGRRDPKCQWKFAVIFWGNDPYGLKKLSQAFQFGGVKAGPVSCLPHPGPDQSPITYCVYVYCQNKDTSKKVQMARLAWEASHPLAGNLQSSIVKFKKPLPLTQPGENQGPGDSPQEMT

[14] = target: T5, Heat shock factor protein 1 (Mus musculus, UniProt P38532); experiment: decrease of HSF1-responsive luciferase luminescence – cell-based, NIH3T3, dose retest, confirmation (AID 2382); type: functional;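 note: NIH3T3 fibroblasts with HSF1-driven luciferase reporter stressed by proteasome inhibitor MG132; luminescence from HSF1-driven luciferase expression after 8 hours of MG132 stress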
T5 sequence (P38532 whole entry): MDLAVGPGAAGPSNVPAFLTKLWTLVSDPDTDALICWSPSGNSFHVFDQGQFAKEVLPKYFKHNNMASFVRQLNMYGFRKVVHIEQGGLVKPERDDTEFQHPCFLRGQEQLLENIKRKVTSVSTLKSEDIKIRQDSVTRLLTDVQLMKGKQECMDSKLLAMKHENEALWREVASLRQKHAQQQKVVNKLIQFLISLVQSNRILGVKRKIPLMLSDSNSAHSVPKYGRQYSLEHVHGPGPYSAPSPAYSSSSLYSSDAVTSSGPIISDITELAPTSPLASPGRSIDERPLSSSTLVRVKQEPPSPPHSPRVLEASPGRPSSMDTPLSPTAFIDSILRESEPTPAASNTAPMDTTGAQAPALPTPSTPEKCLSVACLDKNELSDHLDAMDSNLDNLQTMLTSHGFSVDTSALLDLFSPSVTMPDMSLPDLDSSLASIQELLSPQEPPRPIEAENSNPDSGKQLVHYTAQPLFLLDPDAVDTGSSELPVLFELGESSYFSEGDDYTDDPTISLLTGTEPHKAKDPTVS

Sequence of Peroxisome proliferator-activated receptor gamma/Nuclear receptor coactivator 1 (P37231 whole entry): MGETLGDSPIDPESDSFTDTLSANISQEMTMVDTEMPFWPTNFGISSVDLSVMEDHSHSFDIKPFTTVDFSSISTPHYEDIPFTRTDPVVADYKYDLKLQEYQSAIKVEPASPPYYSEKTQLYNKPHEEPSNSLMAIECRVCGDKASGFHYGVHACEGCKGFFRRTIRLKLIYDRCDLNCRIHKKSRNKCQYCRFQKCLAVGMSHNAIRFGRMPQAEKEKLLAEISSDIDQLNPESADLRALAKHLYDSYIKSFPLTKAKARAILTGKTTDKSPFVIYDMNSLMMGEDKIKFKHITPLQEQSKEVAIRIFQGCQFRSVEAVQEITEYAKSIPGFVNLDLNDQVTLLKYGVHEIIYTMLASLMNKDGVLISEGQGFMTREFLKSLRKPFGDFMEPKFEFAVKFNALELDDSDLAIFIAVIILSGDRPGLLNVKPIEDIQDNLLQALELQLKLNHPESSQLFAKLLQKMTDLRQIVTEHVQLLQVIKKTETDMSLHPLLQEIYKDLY
Sequence of Peroxisome proliferator-activated receptor gamma/Nuclear receptor coactivator 1 (Q15788 whole entry, further chain): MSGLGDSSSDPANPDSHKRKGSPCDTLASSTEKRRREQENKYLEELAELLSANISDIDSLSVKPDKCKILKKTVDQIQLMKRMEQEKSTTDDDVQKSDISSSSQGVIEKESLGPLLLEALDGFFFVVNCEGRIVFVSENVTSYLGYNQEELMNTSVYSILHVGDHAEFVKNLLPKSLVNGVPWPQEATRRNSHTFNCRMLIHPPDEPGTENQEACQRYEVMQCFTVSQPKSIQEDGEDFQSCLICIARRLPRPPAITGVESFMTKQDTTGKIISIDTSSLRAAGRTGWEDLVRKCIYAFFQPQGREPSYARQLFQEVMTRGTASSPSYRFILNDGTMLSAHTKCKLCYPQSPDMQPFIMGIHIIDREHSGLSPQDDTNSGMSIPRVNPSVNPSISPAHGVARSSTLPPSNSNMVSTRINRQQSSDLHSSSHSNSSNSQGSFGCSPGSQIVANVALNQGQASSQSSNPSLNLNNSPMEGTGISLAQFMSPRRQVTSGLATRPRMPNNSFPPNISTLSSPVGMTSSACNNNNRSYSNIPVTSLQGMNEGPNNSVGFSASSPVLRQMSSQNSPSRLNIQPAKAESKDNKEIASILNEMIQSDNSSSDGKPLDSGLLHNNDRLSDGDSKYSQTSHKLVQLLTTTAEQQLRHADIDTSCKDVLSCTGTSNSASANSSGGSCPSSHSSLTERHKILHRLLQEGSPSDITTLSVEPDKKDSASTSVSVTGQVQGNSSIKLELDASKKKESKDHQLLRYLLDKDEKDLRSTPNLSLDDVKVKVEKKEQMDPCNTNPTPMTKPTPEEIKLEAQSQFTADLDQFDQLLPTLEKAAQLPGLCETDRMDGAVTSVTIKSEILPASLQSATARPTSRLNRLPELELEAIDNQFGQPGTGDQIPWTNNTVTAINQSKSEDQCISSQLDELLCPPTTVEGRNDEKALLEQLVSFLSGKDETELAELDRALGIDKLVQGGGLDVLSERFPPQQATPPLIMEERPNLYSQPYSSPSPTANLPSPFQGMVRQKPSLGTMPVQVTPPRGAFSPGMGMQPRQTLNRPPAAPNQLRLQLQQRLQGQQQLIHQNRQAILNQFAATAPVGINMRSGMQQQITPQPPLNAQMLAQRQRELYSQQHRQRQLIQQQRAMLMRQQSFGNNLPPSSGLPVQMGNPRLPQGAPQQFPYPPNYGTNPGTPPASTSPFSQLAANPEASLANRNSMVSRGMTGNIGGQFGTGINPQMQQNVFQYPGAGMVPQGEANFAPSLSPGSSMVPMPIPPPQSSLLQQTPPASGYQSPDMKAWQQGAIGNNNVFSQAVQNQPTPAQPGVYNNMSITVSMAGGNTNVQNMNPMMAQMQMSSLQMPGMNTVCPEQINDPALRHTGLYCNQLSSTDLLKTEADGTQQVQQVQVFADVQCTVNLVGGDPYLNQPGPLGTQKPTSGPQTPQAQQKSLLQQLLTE
Sequence of Peroxisome proliferator-activated receptor gamma/Nuclear receptor coactivator 2 (P37231 whole entry): as the sequence (P37231 whole entry) above
Sequence of Peroxisome proliferator-activated receptor gamma/Nuclear receptor coactivator 2 (Q15596 whole entry, further chain): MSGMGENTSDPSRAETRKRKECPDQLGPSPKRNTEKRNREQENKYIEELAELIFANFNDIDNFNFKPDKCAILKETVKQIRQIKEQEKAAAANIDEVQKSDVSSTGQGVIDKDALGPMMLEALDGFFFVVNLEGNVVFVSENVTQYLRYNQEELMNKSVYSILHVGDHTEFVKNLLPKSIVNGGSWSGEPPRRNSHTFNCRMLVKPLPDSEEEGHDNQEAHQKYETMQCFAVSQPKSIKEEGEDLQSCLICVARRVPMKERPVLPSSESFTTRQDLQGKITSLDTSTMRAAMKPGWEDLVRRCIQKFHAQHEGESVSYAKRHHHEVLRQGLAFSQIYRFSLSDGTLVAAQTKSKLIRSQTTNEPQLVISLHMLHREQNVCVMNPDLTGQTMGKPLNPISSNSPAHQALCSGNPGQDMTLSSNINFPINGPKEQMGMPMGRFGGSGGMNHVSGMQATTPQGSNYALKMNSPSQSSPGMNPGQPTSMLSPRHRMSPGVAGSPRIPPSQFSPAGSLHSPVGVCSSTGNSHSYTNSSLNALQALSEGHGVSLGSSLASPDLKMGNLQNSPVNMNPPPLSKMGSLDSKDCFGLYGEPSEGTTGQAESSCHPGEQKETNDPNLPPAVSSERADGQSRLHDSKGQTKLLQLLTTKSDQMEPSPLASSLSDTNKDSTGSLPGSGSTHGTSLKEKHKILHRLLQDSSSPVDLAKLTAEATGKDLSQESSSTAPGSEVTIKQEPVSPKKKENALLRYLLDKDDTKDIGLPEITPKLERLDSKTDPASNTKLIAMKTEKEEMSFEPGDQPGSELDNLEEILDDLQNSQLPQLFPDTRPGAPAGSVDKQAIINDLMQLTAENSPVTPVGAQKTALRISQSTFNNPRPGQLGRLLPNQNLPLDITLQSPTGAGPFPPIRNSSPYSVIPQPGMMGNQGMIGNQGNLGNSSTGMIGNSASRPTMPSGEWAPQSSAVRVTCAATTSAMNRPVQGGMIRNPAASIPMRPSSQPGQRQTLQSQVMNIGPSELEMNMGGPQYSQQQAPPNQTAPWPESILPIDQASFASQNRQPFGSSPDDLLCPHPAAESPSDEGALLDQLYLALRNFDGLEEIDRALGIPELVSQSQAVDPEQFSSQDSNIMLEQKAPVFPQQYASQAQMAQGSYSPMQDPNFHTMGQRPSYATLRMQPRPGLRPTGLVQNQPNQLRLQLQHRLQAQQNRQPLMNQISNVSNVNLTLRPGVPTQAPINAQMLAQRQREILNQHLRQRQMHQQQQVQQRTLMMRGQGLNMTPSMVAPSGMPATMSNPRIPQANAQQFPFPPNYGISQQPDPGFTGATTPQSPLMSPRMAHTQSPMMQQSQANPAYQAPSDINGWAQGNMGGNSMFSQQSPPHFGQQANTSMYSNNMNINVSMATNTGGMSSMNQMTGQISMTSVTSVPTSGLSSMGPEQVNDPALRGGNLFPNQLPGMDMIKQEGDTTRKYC
Sequence of Glyceraldehyde-3-phosphate dehydrogenase (P04406 whole entry): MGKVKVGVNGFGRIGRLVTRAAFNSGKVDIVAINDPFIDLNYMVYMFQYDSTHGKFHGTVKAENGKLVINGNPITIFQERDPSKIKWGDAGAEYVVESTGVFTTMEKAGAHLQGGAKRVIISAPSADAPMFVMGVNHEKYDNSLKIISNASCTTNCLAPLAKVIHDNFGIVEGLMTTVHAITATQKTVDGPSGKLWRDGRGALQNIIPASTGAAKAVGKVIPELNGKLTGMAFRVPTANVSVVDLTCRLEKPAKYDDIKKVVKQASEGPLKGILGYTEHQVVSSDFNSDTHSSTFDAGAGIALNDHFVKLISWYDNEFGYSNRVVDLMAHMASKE
Sequence of G-protein coupled receptor 55 (Q9Y2T6 whole entry): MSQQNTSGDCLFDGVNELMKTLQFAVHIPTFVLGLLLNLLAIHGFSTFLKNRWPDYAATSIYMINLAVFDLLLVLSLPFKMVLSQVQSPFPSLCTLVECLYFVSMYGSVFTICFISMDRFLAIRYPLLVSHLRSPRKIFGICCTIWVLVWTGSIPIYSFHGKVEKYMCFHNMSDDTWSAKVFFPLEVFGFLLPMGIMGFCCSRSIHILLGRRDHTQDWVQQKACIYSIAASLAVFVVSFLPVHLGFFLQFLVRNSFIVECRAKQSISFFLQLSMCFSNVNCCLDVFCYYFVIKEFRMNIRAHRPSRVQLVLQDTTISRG

CCOC(=O)N1CCN(S(=O)(=O)c2cc(Br)cc3c2N(C(C)=O)C(C)C3)CC1 (stereo not drawn)
EC50 [1]: > 20 µM (not active) | EC50 [2]: > 20 µM (not active)

COc1ccc(C(=O)CSc2nnc(-c3ccc(S(=O)(=O)N4CCOCC4)cc3)o2)cc1
EC50 [3]: 26.1 µM (not active) | EC50 [4]: 53.5 µM (not active) | EC50 [5]: 40.5 µM (not active)

N=C1S/C(=C\c2cn[nH]c2-c2ccc(F)cc2)C(=O)N1c1ccccc1F
EC50 (H4): > 120 µM (not active) | EC50 [6]: 8.92 µM (active) | EC50 (Streptococcus): 38.9 µM (active) | EC50 [7]: 4.49 µM (active) | CC50 [8]: 20.2 µM (active) | EC50 (Streptokinase A): > 150 µM (not active) | IC50 [9]: < 0.5 µM (active)

Cc1cc(C)c2c(n1)nn1c(N3CCN(c4ccccc4)CC3)cc(C)nc21
EC50 [1]: > 20 µM (not active) | EC50 [2]: > 20 µM (not active)

COc1ccccc1N(CC(=O)NCC1CCCO1)C(=O)CCC(=O)Nc1nccs1 (stereo not drawn)
EC50 [3]: > 79.4 µM (not active) | EC50 [4]: > 79.4 µM (not active) | EC50 [5]: > 79.4 µM (not active)

O=C(O)CN1C(=O)/C(=C\c2ccc(C(=O)O)cc2)SC1=S
IC50 [10]: 88.9 µM (active) | IC50 [11]: > 100 µM (not active) | IC50 [12]: > 100 µM (inactive) | IC50 [13]: 24.5 µM (active)

CC(Oc1ccccc1)c1nnc(N)s1 (stereo not drawn)
AC50 (ORF 73): 53 µM (active)

O=C(O)CN1C(=O)/C(=C\c2cccc([N+](=O)[O-])c2)SC1=S
IC50 [10]: > 100 µM (inactive) | IC50 [11]: > 100 µM (not active) | IC50 [12]: > 100 µM (inactive) | IC50 [13]: > 100 µM (inactive)

Clc1ccc(-c2noc(CSc3nnc(Cc4cccs4)n3-c3ccccc3)n2)cc1
IC50 [9]: 2.67 µM (active)

CCOC(=O)c1c(NC(=O)Cc2cccs2)sc(C(=O)NC2CCCC2)c1C
EC50 [3]: > 79.4 µM (not active) | EC50 [4]: > 79.4 µM (not active) | EC50 [5]: > 79.4 µM (not active)

Cc1ccc(-n2ncc3c(NCc4ccc5c(c4)OCO5)ncnc32)c(C)c1
EC50 [1]: > 20 µM (not active) | EC50 [2]: > 20 µM (not active) | EC50 [14]: > 195 µM (not active)
